According to the NIST ThermoML archive (doi:10.1007/s10765-013-1546-4):

Details: Liquid; for viscosity: Vibrating wire viscometry; for vapor or sublimation pressure: Closed cell (Static) method

CCF [fluoroethane]
viscosity [mPa·s]
Details | 5000 kPa | 10000 kPa | 15000 kPa | 20000 kPa | 25000 kPa | 30000 kPa
243.17 K | 0.232 | 0.2433 | 0.2538 | 0.2643 | 0.2748 | 0.285
253.16 K | 0.2037 | 0.2128 | 0.2214 | 0.2315 | 0.2396 | 0.2489
263.17 K | 0.1834 | 0.1926 | 0.2012 | 0.2097 | 0.2177 | 0.2262
273.15 K | 0.1642 | 0.1729 | 0.1812 | 0.1894 | 0.1971 | 0.205
283.15 K | 0.147 | 0.1553 | 0.1637 | 0.1713 | 0.1794 | 0.1868
293.15 K | 0.1322 | 0.1406 | 0.1489 | 0.1566 | 0.1642 | 0.1717
303.15 K | 0.1196 | 0.1279 | 0.136 | 0.1437 | 0.1512 | 0.1584
313.14 K | 0.1078 | 0.1164 | 0.1242 | 0.132 | 0.1393 | 0.1468
323.16 K | 0.0968 | 0.1054 | 0.1134 | 0.1209 | 0.1282 | 0.1356
333.16 K | 0.0866 | 0.0958 | 0.1039 | 0.1113 | 0.1181 | 0.1247
343.16 K | 0.0766 | 0.0866 | 0.0953 | 0.1027 | 0.1094 | 0.1159
353.16 K | 0.0666 | 0.0782 | 0.0871 | 0.0946 | 0.1014 | 0.108
363.16 K | 0.0562 | 0.0699 | 0.0796 | 0.0873 | 0.0943 | 0.1005

Details | vapor or sublimation pressure [kPa] | viscosity [mPa·s]
243.17 K | 140 | 0.2238
253.16 K | 210 | 0.1961
263.17 K | 310 | 0.175
273.15 K | 440 | 0.1565
283.15 K | 600 | 0.1395
293.15 K | 810 | 0.1247
303.15 K | 1060 | 0.1122
313.14 K | 1360 | 0.1003
323.16 K | 1730 | 0.0902
333.16 K | 2170 | 0.0803
343.16 K | 2680 | 0.0708
353.16 K | 3280 | 0.0614
363.16 K | 3990 | 0.0514
